The NIST ThermoML archive (doi:10.1016/j.jct.2014.07.026)

Test: mn = molality of the nth substance listed, in mol/kg
Details: 100 kPa, Liquid; for mass density: Vibrating tube method; for speed of sound: Frequency=2 MHz, Linear variable-path acoustic interferometer

CCCCn1cc[n+](C)c1.C[C@H](N)C(=O)[O-] [3-butyl-1-methyl-1H-imidazolium L-alaninate] + O
Details	mass density [kg/m3]	speed of sound [m/s]
293.15 K, m1 = 0.03078	999.145	–
293.15 K, m1 = 0.04697	999.63	–
293.15 K, m1 = 0.06646	1000.21	–
293.15 K, m1 = 0.08363	1000.72	–
293.15 K, m1 = 0.0978	1001.14	–
293.15 K, m1 = 0.1393	1002.34	–
293.15 K, m1 = 0.1674	1003.15	–
293.15 K, m1 = 0.2011	1004.09	–
293.15 K, m1 = 0.2513	1005.48	–
293.15 K, m1 = 0.2946	1006.67	–
293.15 K, m1 = 0.3312	1007.64	–
293.15 K, m1 = 0.383	1009.05	–
293.15 K, m1 = 0.4337	1010.33	–
298.15 K, m1 = 0.03078	997.956	–
298.15 K, m1 = 0.04697	998.423	–
298.15 K, m1 = 0.06346	–	1507.5
298.15 K, m1 = 0.06646	998.985	–
298.15 K, m1 = 0.08363	999.477	–
298.15 K, m1 = 0.0978	999.884	–
298.15 K, m1 = 0.1393	1001.05	–
298.15 K, m1 = 0.1428	–	1519.5
298.15 K, m1 = 0.1674	1001.83	–
298.15 K, m1 = 0.1848	–	1526.1
298.15 K, m1 = 0.2011	1002.75	–
298.15 K, m1 = 0.2434	–	1534.3
298.15 K, m1 = 0.2513	1004.09	–
298.15 K, m1 = 0.2946	1005.25	–
298.15 K, m1 = 0.2968	–	1541.6
298.15 K, m1 = 0.3312	1006.21	–
298.15 K, m1 = 0.3455	–	1549.5
298.15 K, m1 = 0.383	1007.55	–
298.15 K, m1 = 0.3934	–	1555.4
298.15 K, m1 = 0.4337	1008.88	–
298.15 K, m1 = 0.4399	–	1561.4
298.15 K, m1 = 0.4872	–	1567.8
298.15 K, m1 = 0.546	–	1576.5
303.15 K, m1 = 0.03078	996.541	–
303.15 K, m1 = 0.04697	996.999	–
303.15 K, m1 = 0.06646	997.554	–
303.15 K, m1 = 0.08363	998.04	–
303.15 K, m1 = 0.0978	998.438	–
303.15 K, m1 = 0.1393	999.57	–
303.15 K, m1 = 0.1674	1000.34	–
303.15 K, m1 = 0.2011	1001.23	–
303.15 K, m1 = 0.2513	1002.54	–
303.15 K, m1 = 0.2946	1003.67	–
303.15 K, m1 = 0.3312	1004.62	–
303.15 K, m1 = 0.383	1005.95	–
303.15 K, m1 = 0.4337	1007.21	–
308.15 K, m1 = 0.03124	994.926	–
308.15 K, m1 = 0.05075	995.469	–
308.15 K, m1 = 0.06032	995.732	–
308.15 K, m1 = 0.08315	996.374	–
308.15 K, m1 = 0.09789	996.775	–
308.15 K, m1 = 0.1399	997.892	–
308.15 K, m1 = 0.181	998.999	–
308.15 K, m1 = 0.2108	999.761	–
308.15 K, m1 = 0.2555	1000.94	–
308.15 K, m1 = 0.2996	1002.03	–
308.15 K, m1 = 0.3385	1003.03	–
308.15 K, m1 = 0.3814	1004.06	–
308.15 K, m1 = 0.4337	1005.37	–
313.15 K, m1 = 0.03124	993.094	–
313.15 K, m1 = 0.05075	993.624	–
313.15 K, m1 = 0.06032	993.886	–
313.15 K, m1 = 0.08315	994.504	–
313.15 K, m1 = 0.09789	994.894	–
313.15 K, m1 = 0.1399	996.012	–
313.15 K, m1 = 0.181	997.076	–
313.15 K, m1 = 0.2108	997.849	–
313.15 K, m1 = 0.2555	998.984	–
313.15 K, m1 = 0.2996	1000.07	–
313.15 K, m1 = 0.3385	1001.05	–
313.15 K, m1 = 0.3814	1002.07	–
313.15 K, m1 = 0.4337	1003.34	–
